Test results reported in ChEMBL document CHEMBL4840364, “Penicisteckins A-F, Isochroman-Derived Atropisomeric Dimers from Penicillium steckii HNNU-5B18” (J Nat Prod, 2021).
≈ marks a conversion by molar mass, not a printed value.

Columns and labels:
HGC-27 = assay: Cytotoxicity against human HGC-27 cells assessed as inhibition of cell viability measured for 48 hrs by CCK colorimetric assay; format: functional, cell-based; conditions: HGC-27, 48 h
SH-SY5Y = assay: Cytotoxicity against human SH-SY5Y cells assessed as inhibition of cell viability measured for 48 hrs by CCK colorimetric assay; format: functional, cell-based
C6 = assay: Cytotoxicity against rat C6 cells assessed as inhibition of cell viability measured for 48 hrs by CCK colorimetric assay; format: functional, cell-based; conditions: C6, 48 h
Staphylococcus aureus [1] = assay: Antibacterial activity against Staphylococcus aureus ATCC 29213 assessed as bacterial growth inhibition incubated for 20 hrs by broth micro dilution method; format: functional
Staphylococcus aureus [2] = assay: Antibacterial activity against methicillin-resistant Staphylococcus aureus assessed as bacterial growth inhibition incubated for 20 hrs by broth micro dilution method; format: functional

| SMILES | IC50 (HGC-27) [µM] | IC50 (SH-SY5Y) [µM] | IC50 (C6) [µM] | MIC (Staphylococcus aureus [1]) [µg/mL] | MIC (Staphylococcus aureus [2]) [µg/mL] |
| --- | --- | --- | --- | --- | --- |
| COc1cc(O)c(C)c2c1CO[C@@H](C)C2 | < 10 | < 10 | < 10 | – | – |
| COC1=CC(=O)C(C)=C(C[C@@H](C)O)C1=O | < 10 | < 10 | < 10 | 2 (≈ 9.51 µM) | 8 (≈ 38.1 µM) |
| COc1c2c(c(C)c(O)c1-c1c(O)c(C)c3c(c1OC)CO[C@@H](C)C3)C[C@H](C)OC2 (atropisomer aR) | < 10 | < 10 | < 10 | – | – |
| COc1cc(O)c(-c2c(O)c(C)c3c(c2OC)CO[C@@H](C)C3)c2c1CO[C@@H](C)C2 (atropisomer aS) | < 10 | < 10 | < 10 | – | – |
| COC1=C(c2c(O)cc(OC)c3c2C[C@H](C)OC3)C(=O)C(C)=C(C[C@@H](C)O)C1=O (atropisomer aS) | < 10 | < 10 | < 10 | – | – |
